Our source for the TGI values is PubChem BioAssay (NCI).

Each structure is given as a SMILES string.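 Compound exposure: 48 hours, 5 concentrations, 96-well plates. Definition used: TGI = concentration required for complete inhibition of growth.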

One experiment deals with IGROV1 ovarian. Description: NCI tumour cell line growth inhibition, 48 h.
The compound `C/C(=N\NS(=O)(=O)c1ccc(C)cc1)C(CN1CCCCC1)C(c1ccccc1)c1c(O)c2ccccc2oc1=O` (centres undefined) returned a TGI greater than 100 µM.

The compound `OC(c1ccccc1)(c1ccccc1)c1ccncc1` gave a TGI greater than 100 µM.

`O=C(Nc1ccc(Cl)cc1)c1cc2cc(N=Nc3ccccc3Cl)ccc2oc1=O` registered a TGI of 48.1 µM.

In the next experiment the test system is EKVX NSCLC. Description: NCI tumour cell line growth inhibition, 48 h.
Consider `C/C(=N\NS(=O)(=O)c1ccc(C)cc1)C(CN1CCCCC1)C(c1ccccc1)c1c(O)c2ccccc2oc1=O` (centres undefined), for which the TGI is greater than 100 µM.

As to `OC(c1ccccc1)(c1ccccc1)c1ccncc1`, the TGI is greater than 100 µM.

Regarding `O=C(Nc1ccc(Cl)cc1)c1cc2cc(N=Nc3ccccc3Cl)ccc2oc1=O`, the TGI worked out at 57.5 µM.

A further experiment relates to SK-MEL-5 melanoma. Description: NCI tumour cell line growth inhibition, 48 h.
On to `O=C(O)C(SC(=S)c1ccc(C(=S)SC(C(=O)O)c2ccccc2)cc1)c1ccccc1` (centres undefined), for which the TGI is greater than 100 µM.

In turn, `C/C(=N\NS(=O)(=O)c1ccc(C)cc1)C(CN1CCCCC1)C(c1ccccc1)c1c(O)c2ccccc2oc1=O` (centres undefined) came in with a TGI greater than 100 µM.

Compound `OC(c1ccccc1)(c1ccccc1)c1ccncc1` showed a TGI greater than 100 µM.

As for `O=C(Nc1ccc(Cl)cc1)c1cc2cc(N=Nc3ccccc3Cl)ccc2oc1=O`, the TGI stood at 61.9 µM.

Another experiment concerns NCI-H460 lung. Kind of experiment: NCI tumour cell line growth inhibition, 48 h.
Consider `O=C(O)C(SC(=S)c1ccc(C(=S)SC(C(=O)O)c2ccccc2)cc1)c1ccccc1` (centres undefined), for which the TGI was greater than 100 µM.

With `C/C(=N\NS(=O)(=O)c1ccc(C)cc1)C(CN1CCCCC1)C(c1ccccc1)c1c(O)c2ccccc2oc1=O` (centres undefined), the TGI was greater than 100 µM.

The compound `OC(c1ccccc1)(c1ccccc1)c1ccncc1` displayed a TGI greater than 100 µM.

Turning to `O=C(Nc1ccc(Cl)cc1)c1cc2cc(N=Nc3ccccc3Cl)ccc2oc1=O`, the TGI is greater than 100 µM.

A further experiment relates to LXFL 529 NSCLC. Description: NCI tumour cell line growth inhibition, 48 h.
`O=C(O)C(SC(=S)c1ccc(C(=S)SC(C(=O)O)c2ccccc2)cc1)c1ccccc1` (centres undefined): the TGI is greater than 100 µM.

`C/C(=N\NS(=O)(=O)c1ccc(C)cc1)C(CN1CCCCC1)C(c1ccccc1)c1c(O)c2ccccc2oc1=O` (centres undefined) had a TGI greater than 100 µM.

The compound `OC(c1ccccc1)(c1ccccc1)c1ccncc1` returned a TGI greater than 100 µM.

For `O=C(Nc1ccc(Cl)cc1)c1cc2cc(N=Nc3ccccc3Cl)ccc2oc1=O`, the TGI is 32.5 µM.

The subject of a further experiment is SR leukemia. Description: NCI tumour cell line growth inhibition, 48 h.
`O=C(O)C(SC(=S)c1ccc(C(=S)SC(C(=O)O)c2ccccc2)cc1)c1ccccc1` (centres undefined) came in with a TGI greater than 100 µM.

Consider `C/C(=N\NS(=O)(=O)c1ccc(C)cc1)C(CN1CCCCC1)C(c1ccccc1)c1c(O)c2ccccc2oc1=O` (centres undefined), for which the TGI was greater than 100 µM.

Turning to `OC(c1ccccc1)(c1ccccc1)c1ccncc1`, the TGI was greater than 100 µM.

`O=C(Nc1ccc(Cl)cc1)c1cc2cc(N=Nc3ccccc3Cl)ccc2oc1=O` came in with a TGI of 34.9 µM.

Another experiment relates to CAKI-1 renal. Description: NCI tumour cell line growth inhibition, 48 h.
With `C/C(=N\NS(=O)(=O)c1ccc(C)cc1)C(CN1CCCCC1)C(c1ccccc1)c1c(O)c2ccccc2oc1=O` (centres undefined), the TGI is greater than 100 µM.

`OC(c1ccccc1)(c1ccccc1)c1ccncc1` gave a TGI greater than 100 µM.

`O=C(Nc1ccc(Cl)cc1)c1cc2cc(N=Nc3ccccc3Cl)ccc2oc1=O` yielded a TGI greater than 100 µM.

In the next experiment the test system is SK-OV-3 ovarian. Description: NCI tumour cell line growth inhibition, 48 h.
The compound `O=C(O)C(SC(=S)c1ccc(C(=S)SC(C(=O)O)c2ccccc2)cc1)c1ccccc1` (centres undefined) displayed a TGI greater than 100 µM.

The compound `C/C(=N\NS(=O)(=O)c1ccc(C)cc1)C(CN1CCCCC1)C(c1ccccc1)c1c(O)c2ccccc2oc1=O` (centres undefined) yielded a TGI greater than 100 µM.

The compound `OC(c1ccccc1)(c1ccccc1)c1ccncc1` yielded a TGI greater than 100 µM.

Turning to `O=C(Nc1ccc(Cl)cc1)c1cc2cc(N=Nc3ccccc3Cl)ccc2oc1=O`, the TGI was 84 µM.

The subject of a further experiment is SNB-19 CNS. Description: NCI tumour cell line growth inhibition, 48 h.
Turning to `O=C(O)C(SC(=S)c1ccc(C(=S)SC(C(=O)O)c2ccccc2)cc1)c1ccccc1` (centres undefined), the TGI is greater than 100 µM.

`C/C(=N\NS(=O)(=O)c1ccc(C)cc1)C(CN1CCCCC1)C(c1ccccc1)c1c(O)c2ccccc2oc1=O` (centres undefined) returned a TGI greater than 100 µM.

As to `OC(c1ccccc1)(c1ccccc1)c1ccncc1`, the TGI is greater than 100 µM.

`O=C(Nc1ccc(Cl)cc1)c1cc2cc(N=Nc3ccccc3Cl)ccc2oc1=O`: the TGI was greater than 100 µM.

The next experiment has as its system NCI-H226 lung. Description: NCI tumour cell line growth inhibition, 48 h.
Consider `O=C(O)C(SC(=S)c1ccc(C(=S)SC(C(=O)O)c2ccccc2)cc1)c1ccccc1` (centres undefined), for which the TGI was greater than 100 µM.

In turn, `C/C(=N\NS(=O)(=O)c1ccc(C)cc1)C(CN1CCCCC1)C(c1ccccc1)c1c(O)c2ccccc2oc1=O` (centres undefined) showed a TGI greater than 100 µM.

Compound `OC(c1ccccc1)(c1ccccc1)c1ccncc1` showed a TGI greater than 100 µM.

`O=C(Nc1ccc(Cl)cc1)c1cc2cc(N=Nc3ccccc3Cl)ccc2oc1=O` showed a TGI of 46.9 µM.

In the next experiment the test system is UACC-257 melanoma. Kind of experiment: NCI tumour cell line growth inhibition, 48 h.
Turning to `O=C(O)C(SC(=S)c1ccc(C(=S)SC(C(=O)O)c2ccccc2)cc1)c1ccccc1` (centres undefined), the TGI is greater than 100 µM.

In turn, `C/C(=N\NS(=O)(=O)c1ccc(C)cc1)C(CN1CCCCC1)C(c1ccccc1)c1c(O)c2ccccc2oc1=O` (centres undefined) showed a TGI greater than 100 µM.

Compound `OC(c1ccccc1)(c1ccccc1)c1ccncc1` registered a TGI greater than 100 µM.

`O=C(Nc1ccc(Cl)cc1)c1cc2cc(N=Nc3ccccc3Cl)ccc2oc1=O` registered a TGI of 68.2 µM.

In a further experiment the test system is HCC-2998 colon. Kind of experiment: NCI tumour cell line growth inhibition, 48 h.
In turn, `O=C(O)C(SC(=S)c1ccc(C(=S)SC(C(=O)O)c2ccccc2)cc1)c1ccccc1` (centres undefined) displayed a TGI greater than 100 µM.

Consider `C/C(=N\NS(=O)(=O)c1ccc(C)cc1)C(CN1CCCCC1)C(c1ccccc1)c1c(O)c2ccccc2oc1=O` (centres undefined), for which the TGI was greater than 100 µM.

Turning to `OC(c1ccccc1)(c1ccccc1)c1ccncc1`, the TGI was greater than 100 µM.

`O=C(Nc1ccc(Cl)cc1)c1cc2cc(N=Nc3ccccc3Cl)ccc2oc1=O` had a TGI of 41.2 µM.

A further experiment relates to SNB-78 CNS. Description: NCI tumour cell line growth inhibition, 48 h.
Compound `O=C(O)C(SC(=S)c1ccc(C(=S)SC(C(=O)O)c2ccccc2)cc1)c1ccccc1` (centres undefined) displayed a TGI greater than 100 µM.

In turn, `C/C(=N\NS(=O)(=O)c1ccc(C)cc1)C(CN1CCCCC1)C(c1ccccc1)c1c(O)c2ccccc2oc1=O` (centres undefined) registered a TGI greater than 100 µM.

On to `OC(c1ccccc1)(c1ccccc1)c1ccncc1`, for which the TGI is greater than 100 µM.

`O=C(Nc1ccc(Cl)cc1)c1cc2cc(N=Nc3ccccc3Cl)ccc2oc1=O` came in with a TGI of 79.7 µM.

The next experiment relates to RXF-631 renal. Kind of experiment: NCI tumour cell line growth inhibition, 48 h.
As for `O=C(O)C(SC(=S)c1ccc(C(=S)SC(C(=O)O)c2ccccc2)cc1)c1ccccc1` (centres undefined), the TGI was greater than 100 µM.

The subject of a further experiment is UACC-62 melanoma. Description: NCI tumour cell line growth inhibition, 48 h.
Compound `O=C(O)C(SC(=S)c1ccc(C(=S)SC(C(=O)O)c2ccccc2)cc1)c1ccccc1` (centres undefined) registered a TGI greater than 100 µM.

`C/C(=N\NS(=O)(=O)c1ccc(C)cc1)C(CN1CCCCC1)C(c1ccccc1)c1c(O)c2ccccc2oc1=O` (centres undefined) yielded a TGI greater than 100 µM.

Compound `OC(c1ccccc1)(c1ccccc1)c1ccncc1` came in with a TGI greater than 100 µM.

In turn, `O=C(Nc1ccc(Cl)cc1)c1cc2cc(N=Nc3ccccc3Cl)ccc2oc1=O` returned a TGI of 26.6 µM.
